Where no end group is shown, it is not given here.
Tests used:
[1] = tested on: wild lactic acid bacteria isolated from ethanol plants; experiment: Sensitivity of 15 wild lactic acid bacteria isolated from ethanol plants to inhibitors in corn steep liquor broth (CSL); format: cell-based; details: share of 15 wild LAB isolates, 33° C.
Excerpt: Pediocin and brochocin are known to inhibit a particular range of LAB, and serve as exemplary model bacteriocins. Other bacteriocins with equal or even broader inhibition ranges may be, based on the present disclosure, synthesized and secreted in a similar manner. Table 8 compares the effectiveness of three different LAB bacteriocins against the three antibiotics most commonly utilized in the ethanol industry as well as another industry antimicrobial ingredient, hop acids. […] Fifteen strains representative of the organisms isolated from corn ethanol plants were utilized. […] The bacteriocins were utilized at either levels currently being produced (pediocin), at levels reported by others in the research literature (nisin) using commercially available preparations, or in an assay system that allows for analyzing relatively broad range of concentrations (brochocin inhibition assay by agar diffusion).

[2] = tested on: ethanol plant isolates (LAB); experiment: Growth (O.D.600) of ethanol plant isolates in corn mash extract with added pediocin; format: cell-based, lactic acid bacteria; details: Pediocin (Sigma) 500 ng/ml in corn mash extract, 37° C.
Excerpt: Screening LAB isolated from ethanol plants for susceptibility to pediocin or brochocin. A variety of microorganisms are known to contaminate bioethanol fermentations, however LAB, particularly lactobacilli, are of primary concern (Beckner et al., 2011). The inventors' laboratory has isolated sixty-two LAB from four ethanol plants in the Midwest region of the United States. This ethanol plant culture collection contains isolates of Lb. fermentum, Lb. plantarum, Lb. brevis, Lb. mucosae, Lb. helveticus, Lb. heilongjiangensis, Lb. amylovorous, Lb. casei, Enterococcus sp. and Pediococcus pentosaceus strains that were gathered from all stages of the ethanol fermentation process. Thirty of these cultures were propagated from frozen by sequential transfers through MRS broth and corn mash extract, a filtrate obtained from corn mash from a bioethanol plant. Pediocin (Sigma) was added at 500 ng/ml to corn mash extract, inoculated with one of the ethanol plant isolates, incubated at 37° C. and growth was monitored by following O.D.600.

With `CC[C@H]1OC(=O)[C@H](C)[C@@H](O[C@H]2C[C@@](C)(OC)[C@@H](O)[C@H](C)O2)[C@H](C)[C@@H](O[C@@H]2O[C@H](C)C[C@H](N(C)C)[C@H]2O)[C@](C)(O)C[C@@H](C)C(=O)[C@H](C)[C@@H](O)[C@]1(C)O` [Erythromycin] as the compound, how does the Resistant ([1]; Erythromycin 1 μg/mL) read?
Its Resistant is 7%.

And the Sensitive ([1]; Erythromycin 1 μg/mL)?
The Sensitive was 93%.

With Penicillin as the compound, how does the Resistant ([1]; Penicillin 6 μg/mL) read?
The Resistant was 33%.

And the Sensitive ([1]; Penicillin 6 μg/mL)?
The Sensitive was 77%.

Virginiamycin was tested. Which Resistant ([1]; Virginiamycin 3 μg/mL) did it give?
The Resistant was 13%.

And the Sensitive ([1]; Virginiamycin 3 μg/mL)?
Its Sensitive is 87%.

How did the Resistant ([1]; Nisin 500 ng/mL) turn out when nisin was run?
The Resistant was 13%.

What about the Sensitive ([1]; Nisin 500 ng/mL) of the same compound?
The Sensitive was 87%.

“pediocin (KYYGNGVTCGKHSCSVDWGKATTCIINNGAMAWATGGHQGNHKC; ends and bridges not checked; cysteine pairing not given here; UniProt P29430 19-62, looked up) [Class IIa bacteriocin; commercial preparation (Sigma), used at the concentration produced by Lb. casei E3 (pNZPed+)]” was tested. Which “ethanol plant isolates whose growth was inhibited” value [2] did it give?
The value was “five of the thirty”.

And the Resistant ([1]; Pediocin 500 IU/mL)?
Its Resistant is 67%.

What about the Sensitive ([1]; Pediocin 500 IU/mL) of the same compound?
Its Sensitive is 33%.

Reference: patent US20220170052A1, “USE OF BACTERIOCIN-PRODUCING ETHANOLOGENS IN BIOFUEL PRODUCTION” (Wisconsin Alumni Research Foundation, priority 2016, published 2022)
